Laboratory results from US20250313548A1 (Actio Biosciences, Inc., priority 2023, published 2025).
Structures can show the parent of a compound that is named as a salt.

Biological target: human, KCNT1 (Homo sapiens (Human), UniProt Q5JUK3)
Assay: FLIPR Tl/K Flux Assay
Format: cell-based
Conditions: HEK293 cells stably expressing human KCNT1; Tl+ flux stimulated with EC80 of agonist Loxapine
How it was run: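 HEK293 cells stably expressing human KCNT1 were loaded with FLIPR potassium dye in HEPES/HBSS pH 7.4 with 5 mM probenecid, 1 h at 25 °C, then given test compound for 30 min at 25 °C. Tl+ flux was triggered with chloride-free buffer containing Tl+ and EC80 loxapine and read 160 s. IC50 came from Hill fits of % inhibition.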

human, KCNT1, sequence (Q5JUK3 whole entry): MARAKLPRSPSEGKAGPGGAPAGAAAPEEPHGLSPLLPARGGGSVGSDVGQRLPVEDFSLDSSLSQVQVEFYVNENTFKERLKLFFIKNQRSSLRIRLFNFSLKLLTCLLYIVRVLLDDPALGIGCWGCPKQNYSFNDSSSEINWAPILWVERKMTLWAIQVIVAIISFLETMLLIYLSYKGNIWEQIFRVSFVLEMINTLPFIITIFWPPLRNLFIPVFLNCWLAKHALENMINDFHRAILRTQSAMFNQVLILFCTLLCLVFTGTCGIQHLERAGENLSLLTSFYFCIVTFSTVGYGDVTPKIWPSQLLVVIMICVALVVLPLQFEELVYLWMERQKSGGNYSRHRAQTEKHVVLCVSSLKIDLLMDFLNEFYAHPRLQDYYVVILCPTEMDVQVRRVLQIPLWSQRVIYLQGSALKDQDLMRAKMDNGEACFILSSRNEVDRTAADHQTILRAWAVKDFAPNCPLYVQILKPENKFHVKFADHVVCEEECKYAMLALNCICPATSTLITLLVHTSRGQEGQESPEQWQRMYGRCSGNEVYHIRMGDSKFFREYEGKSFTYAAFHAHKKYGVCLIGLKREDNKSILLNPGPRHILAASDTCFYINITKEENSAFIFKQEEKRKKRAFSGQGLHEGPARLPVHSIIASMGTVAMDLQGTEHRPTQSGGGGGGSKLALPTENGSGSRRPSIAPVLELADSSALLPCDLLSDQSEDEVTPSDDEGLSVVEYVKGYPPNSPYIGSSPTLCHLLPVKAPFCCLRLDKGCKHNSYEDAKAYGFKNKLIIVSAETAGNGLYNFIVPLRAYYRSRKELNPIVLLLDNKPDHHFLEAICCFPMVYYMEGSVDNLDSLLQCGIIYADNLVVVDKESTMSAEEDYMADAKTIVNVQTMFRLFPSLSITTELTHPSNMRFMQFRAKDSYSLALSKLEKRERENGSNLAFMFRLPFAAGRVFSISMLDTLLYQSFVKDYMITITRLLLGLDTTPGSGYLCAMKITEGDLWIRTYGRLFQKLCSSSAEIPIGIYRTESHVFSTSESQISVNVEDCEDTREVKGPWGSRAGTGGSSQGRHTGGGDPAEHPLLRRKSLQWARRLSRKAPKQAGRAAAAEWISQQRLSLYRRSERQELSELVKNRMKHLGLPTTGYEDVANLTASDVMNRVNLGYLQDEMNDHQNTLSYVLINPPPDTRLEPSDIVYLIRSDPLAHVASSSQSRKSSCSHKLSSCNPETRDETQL

SMILES	IC50
CC(F)(F)c1cc(-c2cc3n(n2)CC[C@@H]3NC(=O)c2cccc(C#N)c2)ccn1 [Compound I-261a, (S)-3-Cyano-N-(2-(2-(1,1-difluoroethyl)pyridin-4-yl)-5,6-dihydro-4H-pyrrolo[1,2-b]pyrazol-4-yl)benzamide]	< 250 nM
N#Cc1cc(F)cc(C(=O)N[C@H]2CCCn3nc(-c4ccnc(C5CC5)c4)cc32)c1 [Compound I-262a]	< 250 nM
N#Cc1cccc(C(=O)N[C@H]2CCCCn3cc(-c4ccnc(C(F)(F)F)c4)cc32)c1 [Compound I-263a, (S)-3-Cyano-N-(2-(2-(trifluoromethyl)pyridin-4-yl)-6,7,8,9-tetrahydro-5H-pyrrolo[1,2-a]azepin-9-yl)benzamide]	< 250 nM
CCOc1cc(C(=O)N[C@H]2CCn3nc(-c4ccnc(C(F)(F)F)c4)cc32)ccn1 [Compound I-264a]	< 250 nM
N#Cc1cc(F)cc(C(=O)N[C@H]2CCCCn3nc(-c4ccnc(C5CC5)c4)cc32)c1 [Compound I-265a, (S)-3-Cyano-N-(2-(2-cyclopropylpyridin-4-yl)-5,6,7,8-tetrahydro-4H-pyrazolo[1,5-a]azepin-4-yl)-5-fluorobenzamide]	< 250 nM
N#Cc1cc(C(=O)N[C@H]2CCn3nc(-c4ccnc(C(F)(F)F)c4)cc32)ccc1F [Compound I-266a, (S)-3-Cyano-4-fluoro-N-(2-(2-(trifluoromethyl)pyridin-4-yl)-5,6-dihydro-4H-pyrrolo[1,2-b]pyrazol-4-yl)benzamide]	< 250 nM
N#Cc1cc(C(=O)N[C@H]2CCc3nn(-c4ccnc(C(F)(F)F)c4)cc32)ccc1F [Compound I-267a, (S)-3-Cyano-4-fluoro-N-(2-(2-(trifluoromethyl)pyridin-4-yl)-2,4,5,6-tetrahydrocyclopenta[c]pyrazol-4-yl)benzamide]	< 250 nM
COc1cc(C(=O)N[C@H]2CCCCn3nc(-c4ccnc(C(C)(F)F)c4)cc32)ccn1 [Compound I-273a]	< 250 nM
CC(F)(F)c1cc(-n2cc3c(n2)CC[C@@H]3NC(=O)c2cccc(C#N)c2)ccn1 [Compound I-274a, (S)-3-Cyano-N-(2-(2-(1,1-difluoroethyl)pyridin-4-yl)-2,4,5,6-tetrahydrocyclopenta[c]pyrazol-4-yl)benzamide]	< 250 nM
COc1cc(-c2nc3c(o2)CCC[C@@H]3NC(=O)c2cc(F)cc(C#N)c2)ccn1 [Compound I-275a]	< 250 nM
N#Cc1cc(C(=O)N[C@H]2CCCCn3nc(-c4ccnc(C(F)(F)F)c4)cc32)ccc1F [Compound I-277a, (S)-3-Cyano-4-fluoro-N-(2-(2-(trifluoromethyl)pyridin-4-yl)-5,6,7,8-tetrahydro-4H-pyrazolo[1,5-a]azepin-4-yl)benzamide]	< 250 nM
N#Cc1ccc(F)c(C(=O)N[C@H]2CCCn3nc(-c4ccnc(C(F)(F)F)c4)cc32)c1 [Compound I-278a, (S)-5-Cyano-2-fluoro-N-(2-(2-(trifluoromethyl)pyridin-4-yl)-4,5,6,7-tetrahydropyrazolo[1,5-a]pyridin-4-yl)benzamide]	< 250 nM
O=C(N[C@H]1CCn2nc(-c3ccnc(C4CC4)c3)cc21)c1cc2cccnn2c1 [Compound I-279a, (S)-N-(2-(2-Cyclopropylpyridin-4-yl)-5,6-dihydro-4H-pyrrolo[1,2-b]pyrazol-4-yl)pyrrolo[1,2-b]pyridazine-6-carboxamide]	< 250 nM
Cc1cnc(C(F)(F)F)cc1-c1cc2n(n1)CCCC[C@@H]2NC(=O)c1cccc(C#N)c1 [Compound I-280a, (S)-3-Cyano-N-(2-(5-methyl-2-(trifluoromethyl)pyridin-4-yl)-5,6,7,8-tetrahydro-4H-pyrazolo[1,5-a]azepin-4-yl)benzamide]	< 250 nM
Cc1cc(C#N)cc(C(=O)N[C@H]2CCCn3nc(-c4ccnc(C5CC5)c4)cc32)c1 [Compound I-281a, (S)-3-Cyano-N-(2-(2-cyclopropylpyridin-4-yl)-4,5,6,7-tetrahydropyrazolo[1,5-a]pyridin-4-yl)-5-methylbenzamide TFA salt]	< 250 nM
CCOc1cc(C(=O)N[C@H]2CCCn3nc(-c4ccnc(C(F)(F)F)c4)cc32)ccn1 [Compound I-282a, (S)-2-Ethoxy-N-(2-(2-(trifluoromethyl)pyridin-4-yl)-4,5,6,7-tetrahydropyrazolo[1,5-a]pyridin-4-yl)isonicotinamide]	< 250 nM
CCOc1cc(C(=O)N[C@H]2CCCCn3nc(-c4ccnc(C(F)(F)F)c4)cc32)ccn1 [Compound I-283a, (S)-2-Ethoxy-N-(2-(2-(trifluoromethyl)pyridin-4-yl)-5,6,7,8-tetrahydro-4H-pyrazolo[1,5-a]azepin-4-yl)isonicotinamide]	< 250 nM
COc1cc(-c2cc3n(n2)CCC[C@@H]3NC(=O)c2cc(C#N)cc(C(F)(F)F)c2)ccn1 [Compound I-284a, (S)-3-Cyano-N-(2-(2-methoxypyridin-4-yl)-4,5,6,7-tetrahydropyrazolo[1,5-a]pyridin-4-yl)-5-(trifluoromethyl)benzamide]	< 250 nM

SMILES	IC50
COc1cc(-c2cc3n(n2)CC[C@@H]3NC(=O)c2cc(C#N)cc(C(F)(F)F)c2)ccn1 [Compound I-285a, (S)-3-Cyano-N-(2-(2-methoxypyridin-4-yl)-5,6-dihydro-4H-pyrrolo[1,2-b]pyrazol-4-yl)-5-(trifluoromethyl)benzamide]	< 250 nM
COc1cc(-c2cc3n(n2)CC[C@@H]3NC(=O)c2cccc(C(F)(F)F)c2)ccn1 [Compound I-286a, (S)-N-(2-(2-Methoxypyridin-4-yl)-5,6-dihydro-4H-pyrrolo[1,2-b]pyrazol-4-yl)-3-(trifluoromethyl)benzamide]	< 250 nM
COc1cc(-c2cc3n(n2)CCC[C@@H]3NC(=O)c2cc(F)cc(C(F)(F)F)c2)ccn1 [Compound I-287a, (S)-3-Fluoro-N-(2-(2-methoxypyridin-4-yl)-4,5,6,7-tetrahydropyrazolo[1,5-a]pyridin-4-yl)-5-(trifluoromethyl)benzamide]	< 250 nM
N#Cc1cc(C(=O)N[C@H]2CCn3nc(-c4ccnc(C(F)(F)F)c4)cc32)cc(C(F)(F)F)c1 [Compound I-288a, (S)-3-Cyano-5-(trifluoromethyl)-N-(2-(2-(trifluoromethyl)pyridin-4-yl)-5,6-dihydro-4H-pyrrolo[1,2-b]pyrazol-4-yl)benzamide]	< 250 nM
O=C(N[C@H]1CCn2nc(-c3ccnc(C(F)(F)F)c3)cc21)c1cccc(C(F)(F)F)c1 [Compound I-289a, (S)-3-(Trifluoromethyl)-N-(2-(2-(trifluoromethyl)pyridin-4-yl)-5,6-dihydro-4H-pyrrolo[1,2-b]pyrazol-4-yl)benzamide]	< 250 nM
O=C(N[C@H]1CCCn2nc(-c3ccnc(C(F)(F)F)c3)cc21)c1cccc(C(F)(F)F)c1 [Compound I-290a, (S)-3-(Trifluoromethyl)-N-(2-(2-(trifluoromethyl)pyridin-4-yl)-4,5,6,7-tetrahydropyrazolo[1,5-a]pyridin-4-yl)benzamide]	< 250 nM
O=C(N[C@H]1CCn2nc(-c3ccnc(C(F)(F)F)c3)cc21)c1cc2cccnn2c1 [Compound I-291a, (S)-N-(2-(2-(Trifluoromethyl)pyridin-4-yl)-5,6-dihydro-4H-pyrrolo[1,2-b]pyrazol-4-yl)pyrrolo[1,2-b]pyridazine-6-carboxamide]	< 250 nM
COc1cc(-c2cc3n(n2)CC[C@@H]3NC(=O)c2cc3cccnn3c2)ccn1 [Compound I-292a, (S)-N-(2-(2-Methoxypyridin-4-yl)-5,6-dihydro-4H-pyrrolo[1,2-b]pyrazol-4-yl)pyrrolo[1,2-b]pyridazine-6-carboxamide]	< 250 nM
COc1cc(-c2nc3c(o2)CCC[C@@H]3NC(=O)c2cc3cccnn3c2)ccn1 [Compound I-293a, (S)-N-(2-(2-Methoxypyridin-4-yl)-4,5,6,7-tetrahydrobenzo[d]oxazol-4-yl)pyrrolo[1,2-b]pyridazine-6-carboxamide]	250 to 500 nM
COc1cc(-c2nc3c(o2)CCC[C@@H]3NC(=O)c2cccc(C#N)c2)ccn1 [Compound I-294a, (S)-3-Cyano-N-(2-(2-methoxypyridin-4-yl)-4,5,6,7-tetrahydrobenzo[d]oxazol-4-yl)benzamide]	< 250 nM
N#Cc1cc(C(=O)N[C@H]2CCCn3nc(-c4ccnc(C(F)(F)F)c4)cc32)cc(C(F)(F)F)c1 [Compound I-295a, (S)-3-Cyano-5-(trifluoromethyl)-N-(2-(2-(trifluoromethyl)pyridin-4-yl)-4,5,6,7-tetrahydropyrazolo[1,5-a]pyridin-4-yl)benzamide]	< 250 nM
O=C(N[C@H]1CCCc2oc(-c3ccnc(C(F)(F)F)c3)nc21)c1cc2cccnn2c1 [Compound I-296a, (S)-N-(2-(2-(Trifluoromethyl)pyridin-4-yl)-4,5,6,7-tetrahydrobenzo[d]oxazol-4-yl)pyrrolo[1,2-b]pyridazine-6-carboxamide]	< 250 nM
N#Cc1cccc(C(=O)N[C@H]2CCCc3oc(-c4ccnc(C(F)(F)F)c4)nc32)c1 [Compound I-297a, (S)-3-Cyano-N-(2-(2-(trifluoromethyl)pyridin-4-yl)-4,5,6,7-tetrahydrobenzo[d]oxazol-4-yl)benzamide]	< 250 nM
N#Cc1cc(F)cc(C(=O)N[C@H]2CCCc3oc(-c4ccnc(C(F)(F)F)c4)nc32)c1 [Compound I-298a, (S)-3-Cyano-5-fluoro-N-(2-(2-(trifluoromethyl)pyridin-4-yl)-4,5,6,7-tetrahydrobenzo[d]oxazol-4-yl)benzamide]	< 250 nM
COc1cc(C(=O)N[C@H]2CCCc3oc(-c4ccnc(C(F)(F)F)c4)nc32)ccn1 [Compound I-299a]	< 250 nM
N#Cc1cc(F)cc(C(=O)N[C@H]2CCn3nc(-c4ccnc(C5CC5)c4)cc32)c1 [Compound I-300a, (S)-3-Cyano-N-(2-(2-cyclopropylpyridin-4-yl)-5,6-dihydro-4H-pyrrolo[1,2-b]pyrazol-4-yl)-5-fluorobenzamide]	< 250 nM
COc1cc(-c2cc3n(n2)CC[C@@H]3NC(=O)c2cc(F)cc(C#N)c2)ccn1 [Compound I-301a, (S)-3-Cyano-5-fluoro-N-(2-(2-methoxypyridin-4-yl)-5,6-dihydro-4H-pyrrolo[1,2-b]pyrazol-4-yl)benzamide]	< 250 nM
